Values after ≈ are worked out from the molar mass of the structure shown. Some results are limits rather than exact numbers.

The test system of one experiment is Candida albicans. Put plainly: microbe, parasite or virus in culture. To be noted: ATCC 90028, ASSAY_TEST Inhibition of Fungal Growth, detection method Absorption (OD530), plate type 384well, NBS, CORNING #3640.
The next experiment deals with Acinetobacter baumannii. The experiment can be described thus: microbe, parasite or virus in culture. Conditions: ATCC 19606, 18 h, ASSAY_TEST Inhibition of Bacterial Growth, detection method Absorption (OD600), MEDIA CAMHB, plate type 384well, NBS, CORNING #3640.
For a further experiment, the system named is Staphylococcus aureus. Put plainly: microbe, parasite or virus in culture. Conditions: ATCC 43300, 18 h, ASSAY_TEST Inhibition of Bacterial Growth, detection method Absorption (OD600), MEDIA CAMHB, plate type 384well, NBS, CORNING #3640.
For another experiment, the system named is Escherichia coli. The experiment can be described thus: microbe, parasite or virus in culture. To be noted: ATCC 25922, 18 h, ASSAY_TEST Inhibition of Bacterial Growth, detection method Absorption (OD600), MEDIA CAMHB, plate type 384well, NBS, CORNING #3640.
For another experiment, the system named is HEK293. The experiment can be described thus: cells. The format is functional. To be noted: Homo sapiens, ATCC CRL1573, HEK293; ASSAY_TEST Inhibition of Cell Viability; detection method Resazurin; Fluorescence (ex560/em590); MEDIA DMEM with 10% FBS; plate type 384well; TC; CORNING #3712; time 18 hr.
In another experiment the test system is Klebsiella pneumoniae. The experiment can be described thus: microbe, parasite or virus in culture. To be noted: ATCC 700603, 18 h, ASSAY_TEST Inhibition of Bacterial Growth, detection method Absorption (OD600), MEDIA CAMHB, plate type 384well, NBS, CORNING #3640.
A further experiment concerns Pseudomonas aeruginosa. The experiment can be described thus: microbe, parasite or virus in culture. Conditions: ATCC 27853, 18 h, ASSAY_TEST Inhibition of Bacterial Growth, detection method Absorption (OD600), MEDIA CAMHB, plate type 384well, NBS, CORNING #3640.

Description for Acinetobacter baumannii: Antibacterial activity against Acinetobacter baumannii ATCC 19606 (CO-ADD:GN_034); MIC in CAMBH media using NBS plates, by OD600
Description for Candida albicans: Antifungal activity against Candida albicans ATCC 90028 (CO-ADD:FG_001); MIC in YNB media using NBS plates, by OD630
Description for Cryptococcus neoformans: Antifungal activity against Cryptococcus neoformans H99 ATCC 208821 (CO-ADD:FG_002); MIC in YNB media using NBS plates, by Resazurin OD(600-570)
Description for Escherichia coli: Antibacterial activity against Escherichia coli ATCC 25922 (CO-ADD:GN_001); MIC in CAMBH media using NBS plates, by OD(600)
Description for Klebsiella pneumoniae: Antibacterial activity against Klebsiella pneumoniae MDR ATCC 70063 (CO-ADD:GN_003); MIC in CAMBH media using NBS plates, by OD(600)
Description for Pseudomonas aeruginosa: Antibacterial activity against Pseudomonas aeruginosa ATCC 27853 (CO-ADD:GN_042); MIC in CAMBH media using NBS plates, by OD(600)
Description for Staphylococcus aureus: Antibacterial activity against Staphylococcus aureus MRSA ATCC 43300 (CO-ADD:GP_020); MIC in CAMBH media, using NBS plates, by OD(600)

For the molecule `O=[N+]([O-])c1ccccc1-c1ccccc1N(Cc1ccccc1)c1ccccc1`, the MIC against Cryptococcus neoformans is more than 32 µg/mL; in the experiment on Candida albicans it was 32 µg/mL (≈ 84.1 µM); against Acinetobacter baumannii, more than 32 µg/mL; in the experiment on Staphylococcus aureus, more than 32 µg/mL; with Escherichia coli, more than 32 µg/mL; with Klebsiella pneumoniae, more than 32 µg/mL. The molecule also came in with an MIC with Pseudomonas aeruginosa of more than 32 µg/mL. The same molecule returned a cytotoxic concentration (CC50) in the experiment with HEK293 of 8.14 µg/mL (≈ 21.4 µM).

Turning to `Cc1ccccc1Nc1ccccc1-c1ccccc1[N+](=O)[O-]`, the MIC is 32 µg/mL (≈ 105 µM) with Cryptococcus neoformans; 8 µg/mL (≈ 26.3 µM) in the experiment on Candida albicans; more than 32 µg/mL with Acinetobacter baumannii; 4 µg/mL (≈ 13.1 µM) with Staphylococcus aureus; more than 32 µg/mL in the experiment on Escherichia coli; more than 32 µg/mL with Klebsiella pneumoniae. In addition, the MIC in the experiment with Pseudomonas aeruginosa was more than 32 µg/mL. Also, the midpoint of cytotoxicity in the experiment on HEK293, the CC50, lay at 1.95 µg/mL (≈ 6.41 µM).

Turning to `O=[N+]([O-])c1ccccc1-c1ccccc1Nc1ccccc1`, the MIC against Cryptococcus neoformans was 16 µg/mL (≈ 55.1 µM); in the experiment on Candida albicans it was 8 µg/mL (≈ 27.6 µM); against Acinetobacter baumannii it was more than 32 µg/mL; in the experiment on Staphylococcus aureus, 16 µg/mL (≈ 55.1 µM); against Escherichia coli, more than 32 µg/mL; in the experiment on Klebsiella pneumoniae, more than 32 µg/mL. The molecule further had an MIC in the experiment with Pseudomonas aeruginosa of more than 32 µg/mL. Moreover, in the experiment on HEK293, the CC50 was found to be 2.15 µg/mL (≈ 7.41 µM).

For the molecule `Cc1cc(C)c(Nc2ccccc2-c2ccccc2[N+](=O)[O-])c(C)c1`, the MIC is more than 32 µg/mL in the experiment with Cryptococcus neoformans; 16 µg/mL (≈ 48.1 µM) in the experiment on Candida albicans; more than 32 µg/mL against Acinetobacter baumannii; more than 32 µg/mL against Staphylococcus aureus; more than 32 µg/mL with Escherichia coli; more than 32 µg/mL against Klebsiella pneumoniae. Besides, the MIC against Pseudomonas aeruginosa was more than 32 µg/mL. Also, the midpoint of cytotoxicity in the experiment with HEK293, the CC50, lay at 13.1 µg/mL (≈ 39.4 µM).

Turning to `Cc1cc(C)c(Nc2ccccc2-c2ccc([N+](=O)[O-])cc2[N+](=O)[O-])c(C)c1`, the MIC was more than 32 µg/mL against Cryptococcus neoformans; 4 µg/mL (≈ 10.6 µM) with Candida albicans; more than 32 µg/mL against Acinetobacter baumannii; 32 µg/mL (≈ 84.8 µM) in the experiment on Staphylococcus aureus; more than 32 µg/mL against Escherichia coli; more than 32 µg/mL in the experiment with Klebsiella pneumoniae. The MIC against Pseudomonas aeruginosa was more than 32 µg/mL. Moreover, half-maximal cytotoxicity in the experiment with HEK293 (CC50) was put at 15.7 µg/mL (≈ 41.6 µM).

For the molecule `C=C[C@]1(C)C[C@@H](OC(=O)CO)[C@]2(C)[C@H](C)CC[C@]3(CCC(=O)[C@H]32)[C@@H](C)[C@@H]1O` [PLEUROMULIN], the MIC in the experiment with Cryptococcus neoformans was more than 32 µg/mL; against Candida albicans, more than 32 µg/mL; against Acinetobacter baumannii it was more than 32 µg/mL; against Staphylococcus aureus it was 2 µg/mL (≈ 5.28 µM); against Escherichia coli it was more than 32 µg/mL; in the experiment with Klebsiella pneumoniae it was more than 32 µg/mL. The MIC with Pseudomonas aeruginosa is more than 32 µg/mL. The molecule also yielded a CC50 with HEK293 of more than 32 µg/mL.

These data come from ChEMBL document CHEMBL4513137, “CO-ADD screening of University of Manchester (UK) compounds”.
